In patent publication US20050244472A1, “Intraocular drug delivery systems containing excipients with reduced toxicity and related methods” (Allergan, Inc., priority 2004, published 2005):
Values joined by “and” are separate entries in the source; they are usually repeats but may differ in a detail not shown here. Identical values can stand only once. Like-named read-outs stand apart in the source and are kept apart here.

How the values were obtained:
ARPE-19 cells [1] = assay: in vitro
Text: Cell viability and cell morphology were examined to evaluate the toxicity of excipients on retinal pigment epithelial cells. The human retina cell line used in these experiments is the ARPE-19 cell line (human adult-derived retinal pigmented epithelial cells). […] They form tight-junctions with transepithelial resistance of monolayers (Dunn K C et al., supra). From a molecular standpoint, it appears that ARPE-19 express a huge pattern of genes similar to those expressed by human RPE from fresh explant which could account for their physiological function (Klimanskaya I. et al., “Derivation and comparative assessment of retinal pigment epithelium from human embryonic stem cells using transcriptomics”, Cloning and Stem Cells, 2004, 6(3):217-45).
ARPE-19 cells are widely used as a retinal model that resemble physiological properties of RPE cells. Similar methods of culturing ARPE-19 cells and cytotoxicity assays can be found in Yeung et al., “Cytotoxicity of triamcinolone on cultured human retinal pigment epithelial cells: comparison with dexamethasone and hydrocortisone”, Jpn J. Ophthalmol, 2004; 48:236-242. Cell viability and cell morphology were examined using conventional colormetric and visual methods. Viability and morphology measurements were obtained at 24 hours, 48 hours, and 72 hours after exposure to an excipient composition.
To assess cell viability, mitochondrial metabolism was quantified through conventional colorometric assays (i.e., the MTT assay). This colorimetric assay utilizes 3-(4,5-dimethylthiazol-2-yl)-2,5-diphenyltetrazolium bromide (MTT) and correlates mitochondrial metabolism and cell viability through measurement of dehydrogenase activity which converts a substrate into crystal. More specifically, the assay measures the activity of living cells through mitochondrial dehydrogenases. When dissolved in culture cell medium, MTT solution appears dark orange. Mitochondrial dehydrogenases of viable cells degrade MTT by cleaving the tetrazolium ring yielding to formation of a purple formazan crystal, which is insoluble in water. Crystals are subsequently dissolved in isopropanol solution. A resulting purple solution is spectrophotometrically measured. Cell viability is relative to amount of formazan and calculated as a percentage of remaining treated compared to non-treated cells.
Results from the MTT assay were expressed as a percentage of cell viability calculated using the following equation: % cell viability=ODtest/ODcontrol×100.
For each experiment, one concentration was performed in triplicate. Each point was spectrophotometrically read twice. Average of readings was calculated, then average from these 3 values was determined.
After 3 experiments were independently completed under the same conditions, a graph was plotted with cell viability expressed as a function of concentration (dose response) and for various incubation period (time course). The IC50 was then estimated based on the graphed data.
More specifically, cell density in 24-multiwell plates was observed on the day of the experiment to check if confluence of the cells was reached. Aliquots of MTT concentrated solutions were removed from a freezer at −20° C. and thawed at room temperature. Cell medium was warmed at 37° C. before use. Appropriated tubes for diluting compounds were prepared. Higher concentrations of each excipient agent was prepared. Serial dilution was then performed in cell medium (DMEM:F12+10% FBS).
Cell culture medium in the 24-well plate was removed using vacuum-pump. Cells were then stimulated with 0.5 ml final volume for each concentration of one given excipient agent. Distribution of the excipient-containing solution was performed using automated pipet-aid in sterile environment (under PSM) or not depending on time of compounds and duration of incubation.
After stimulation, cells were replaced in a CO2 incubator for the required time of exposure.

[2] = pH of excipient-containing incubating solutions; assay type: physicochemical
Experimental: (§1) For each concentration of tested compound, pH and osmolarity parameters were measured.

[3] = Osmolarity of excipient-containing incubating solutions; assay type: physicochemical
Experimental: Osmolarity was measured using osmometer type 13/13DR from Roebling (Berlin, GR).
as §1

ARPE-19 cells [4] = assay type: cell-based; parameters: key to Cell Morphology score, Mean: 5 = basal (wild type) to 1 = lethal phenotype
Experimental: Cell morphology was visualized using light microscopy. Cell morphology observation using light microscopy permits determination of (i) cell number and density and (ii) whether or not cells in contact with an excipient agent display modified phenotype compared to a non-treated population of cells.
Cell morphology was analyzed in parallel by semi-quantitative scoring ranging from 5 to 1, from basal to lethal phenotype respectively, as shown in FIG. 23.
More specifically, cells were removed from an incubator for examination. Morphological shape of cells was visualized using a light microscope and CCD camera. Every 3 wells of a given concentration was observed through image analysis software. Then, a representative photograph describing the average appearance of cells was saved. The supernatant was either, kept for further predefined experiments to perform, or removed using vacuum-pump.
Resulting semi-quantitative scoring is represented as a function of time course and dose response. Score 5: wild type phenotype of non-treated cells, 100% confluent adherent cells. This phenotype very much vary following post-seeding time. For example, at confluence ARPE-19 cells at 1 day appear well defined with visible outer membrane and dark grey cytoplasm. After 3 days of confluence, limits between cells become less visible and cells adopt a more hexagonal shape and constitute an epithelium-like uniform dense structure. Score 4: density<100%. Cell shape has changed, some spaces are present between cells, few cells possibly detached. Score 3: […]. Spaces are sometimes present among cells, areas appears confluent while in others, cells detached. General cell shape starts showing non negligible alterations. Score 2: Cell density<50%. Cells adopt exclusively stressed appearance, presence of mass dead floating cells. Score 1: Cell density<10%. Presence of almost exclusively dead cells.
Based on quotation, each condition of the applied compound was given a score which allow to a morphology evolution profile to be prepared, ie. cell morphology as a function of compound concentration and time of exposure. […]

[5] = 0.1% excipient dilution in culture medium
[6] = 0.5% excipient dilution in culture medium
[7] = 1% excipient dilution in culture medium
[8] = 5% excipient dilution in culture medium
[9] = 10% excipient dilution in culture medium
[10] = 20% excipient dilution in culture medium
[11] = 0.01% excipient dilution in culture medium
[12] = 0.02% excipient dilution in culture medium
[13] = 0.04% excipient dilution in culture medium
[14] = 0.06% excipient dilution in culture medium
[15] = 0.08% excipient dilution in culture medium

poloxamer 407nf
increase in cell viability up to (ARPE-19 cells [1]): up to 200%

sulfobutyl ether 4 beta-cyclodextrin [Captisol]
pH [2, 5]: 7.6 | pH [2, 6]: 7.6 | pH [2, 7]: 7.6 | pH [2, 8]: 7.6 | pH [2, 9]: 7.7 | pH [2, 10]: 7.7 | mOsm [3, 5]: 310 mOsm | mOsm [3, 6]: 318 mOsm | mOsm [3, 7]: 333 mOsm | mOsm [3, 8]: 408 mOsm | mOsm [3, 9]: 518 mOsm | mOsm [3, 10]: 710 mOsm | Cell Viability, Mean (%) (ARPE-19 cells [1]): 40% | overall cytotoxicity to ARPE-19 cells (conclusion in words) (ARPE-19 cells [1]): mild cytotoxicity

hydroxypropyl gamma-cyclodextrin [Cavasol]
effect on both cell parameters (viability and morphology) (ARPE-19 cells [1]): no measurable effect | percentage of living cells (ARPE-19 cells [1]; 0.05 to 10%, recovery after 24 h): > 80% | reduction of cell survival (ARPE-19 cells [1]; 0.1% (w/v), 24 hour, 48 hour and 72 hour time points): ≤ 10% | IC50 (50% cell viability inhibition) (ARPE-19 cells [1]; deduced from viability graphs, incubation 24-72 h): not possible to determine the IC50

hydroxypropylmethyl cellulose [HPMC]
diminution of cell viability (ARPE-19 cells [1]): 20-40% | percentage of cell viability (ARPE-19 cells [1]): 60-80%

polysorbate 80
pH [2, 11]: 7.5 | pH [2, 12]: 7.6 | pH [2, 13]: 7.5 | pH [2, 14]: 7.5 | pH [2, 15]: 7.5 | pH [2, 5]: 7.6 | mOsm [3, 11]: 310 mOsm | mOsm [3, 12]: 307 mOsm | mOsm [3, 13]: 313 mOsm | mOsm [3, 14]: 346 mOsm | mOsm [3, 15]: 390 mOsm | mOsm [3, 5]: 523 mOsm | Cell Morphology score (ARPE-19 cells [4]; 0.01% Tween80, 24 Hours): 4 (Score 4: density<100%) | Cell Morphology score, Mean (ARPE-19 cells [4]; 0.01% Tween80, 24 Hours): 4.0 | Cell Morphology score (ARPE-19 cells [4]; 0.01% Tween80, 48 Hours): 4 (Score 4: density<100%) | Cell Morphology score, Mean (ARPE-19 cells [4]; 0.01% Tween80, 48 Hours): 4.0 | Cell Morphology score (ARPE-19 cells [4]; 0.01% Tween80, 72 Hours): 4 (Score 4: density<100%) | Cell Morphology score, Mean (ARPE-19 cells [4]; 0.01% Tween80, 72 Hours): 4.0 | Cell Morphology score (ARPE-19 cells [4]; 0.02% Tween80, 24 Hours): 3 (Score 3: 80%<Cell density<40%) and 4 (Score 4: density<100%) | Cell Morphology score, Mean (ARPE-19 cells [4]; 0.02% Tween80, 24 Hours): 3.3 | Cell Morphology score (ARPE-19 cells [4]; 0.02% Tween80, 48 Hours): 3 (Score 3: 80%<Cell density<40%) and 4 (Score 4: density<100%) | Cell Morphology score, Mean (ARPE-19 cells [4]; 0.02% Tween80, 48 Hours): 3.3 | Cell Morphology score (ARPE-19 cells [4]; 0.02% Tween80, 72 Hours): 3 (Score 3: 80%<Cell density<40%) and 4 (Score 4: density<100%) | Cell Morphology score, Mean (ARPE-19 cells [4]; 0.02% Tween80, 72 Hours): 3.7 | Cell Morphology score (ARPE-19 cells [4]; 0.04% Tween80, 24 Hours): 3 (Score 3: 80%<Cell density<40%) and 4 (Score 4: density<100%) | Cell Morphology score, Mean (ARPE-19 cells [4]; 0.04% Tween80, 24 Hours): 3.3 | Cell Morphology score (ARPE-19 cells [4]; 0.04% Tween80, 48 Hours): 3 (Score 3: 80%<Cell density<40%) | Cell Morphology score, Mean (ARPE-19 cells [4]; 0.04% Tween80, 48 Hours): 3.0 | Cell Morphology score (ARPE-19 cells [4]; 0.04% Tween80, 72 Hours): 3 (Score 3: 80%<Cell density<40%) | Cell Morphology score, Mean (ARPE-19 cells [4]; 0.04% Tween80, 72 Hours): 3.0 | Cell Morphology score (ARPE-19 cells [4]; 0.06% Tween80, 24 Hours): 3 (Score 3: 80%<Cell density<40%) | Cell Morphology score, Mean (ARPE-19 cells [4]; 0.06% Tween80, 24 Hours): 3.0 | Cell Morphology score (ARPE-19 cells [4]; 0.06% Tween80, 48 Hours): 3 (Score 3: 80%<Cell density<40%) | Cell Morphology score, Mean (ARPE-19 cells [4]; 0.06% Tween80, 48 Hours): 3.0 | Cell Morphology score (ARPE-19 cells [4]; 0.06% Tween80, 72 Hours): 3 (Score 3: 80%<Cell density<40%) | Cell Morphology score, Mean (ARPE-19 cells [4]; 0.06% Tween80, 72 Hours): 3.0 | Cell Morphology score (ARPE-19 cells [4]; 0.08% Tween80, 24 Hours): 2 (Score 2: Cell density<50%) and 3 (Score 3: 80%<Cell density<40%) | Cell Morphology score, Mean (ARPE-19 cells [4]; 0.08% Tween80, 24 Hours): 2.3 | Cell Morphology score (ARPE-19 cells [4]; 0.08% Tween80, 48 Hours): 2 (Score 2: Cell density<50%) and 1 (Score 1: Cell density<10%) | Cell Morphology score, Mean (ARPE-19 cells [4]; 0.08% Tween80, 48 Hours): 1.7 | Cell Morphology score (ARPE-19 cells [4]; 0.08% Tween80, 72 Hours): 1 (Score 1: Cell density<10%) | Cell Morphology score, Mean (ARPE-19 cells [4]; 0.08% Tween80, 72 Hours): 1.0 | cells floating in a typical round dead shape (ARPE-19 cells [4]; 0.1%): over 95% | Cell Morphology score (ARPE-19 cells [4]; 0.1% Tween80, 24 Hours): 1 (Score 1: Cell density<10%) | Cell Morphology score, Mean (ARPE-19 cells [4]; 0.1% Tween80, 24 Hours): 1.0 | Cell Morphology score (ARPE-19 cells [4]; 0.1% Tween80, 48 Hours): 1 (Score 1: Cell density<10%) | Cell Morphology score, Mean (ARPE-19 cells [4]; 0.1% Tween80, 48 Hours): 1.0 | Cell Morphology score (ARPE-19 cells [4]; 0.1% Tween80, 72 Hours): 1 (Score 1: Cell density<10%) | Cell Morphology score, Mean (ARPE-19 cells [4]; 0.1% Tween80, 72 Hours): 1.0 | Morphology limit concentration (%) (ARPE-19 cells [4]; ARPE-19 cells, Table 3 summary): 0.06% | critical limit for lethality (injured cell aspect) (ARPE-19 cells [4]; morphology): 0.06% | overall cytotoxicity to ARPE-19 cells (conclusion in words) (ARPE-19 cells [1]): barely tolerated | cell survival (ARPE-19 cells [1]; 0.1% (w/v)): substantially zero

sodium carboxymethylcellulose [CMC]
percentage of cell viability (ARPE-19 cells [1]): 80-100%

hydroxypropyl beta-cyclodextrin [Kleptose]
pH [2, 5]: 7.6 | pH [2, 6]: 7.6 | pH [2, 7]: 7.5 | pH [2, 8]: 7.5 | pH [2, 9]: 7.5 | pH [2, 10]: 7.6 | mOsm [3, 5]: 309 mOsm | mOsm [3, 6]: 317 mOsm | mOsm [3, 7]: 325 mOsm | mOsm [3, 8]: 375 mOsm | mOsm [3, 9]: 459 mOsm | mOsm [3, 10]: 635 mOsm | cell survival (ARPE-19 cells [1]; 5% (w/v), 24 hour time point): about 20%
